In patent US20130096050A1 (Longevity Biotech, Inc., priority 2010, published 2013):
pEC50, pIC50: −log10 of the molar value. Entries after “also recorded” stand apart in the source; their conditions may differ.

Columns and labels:
calcitonin receptors = settings: amylin receptor vs calcitonin receptors; cited from earlier work
amylin receptor = settings: read-out: IC50, amylin receptor antagonist; cited from earlier work
CGRP receptors = CGRP receptors (Homo sapiens, UniProt O60894+Q16602); settings: amylin receptor vs CGRP receptors; cited from earlier work
Sequence of CGRP receptors (Q16602 23-461): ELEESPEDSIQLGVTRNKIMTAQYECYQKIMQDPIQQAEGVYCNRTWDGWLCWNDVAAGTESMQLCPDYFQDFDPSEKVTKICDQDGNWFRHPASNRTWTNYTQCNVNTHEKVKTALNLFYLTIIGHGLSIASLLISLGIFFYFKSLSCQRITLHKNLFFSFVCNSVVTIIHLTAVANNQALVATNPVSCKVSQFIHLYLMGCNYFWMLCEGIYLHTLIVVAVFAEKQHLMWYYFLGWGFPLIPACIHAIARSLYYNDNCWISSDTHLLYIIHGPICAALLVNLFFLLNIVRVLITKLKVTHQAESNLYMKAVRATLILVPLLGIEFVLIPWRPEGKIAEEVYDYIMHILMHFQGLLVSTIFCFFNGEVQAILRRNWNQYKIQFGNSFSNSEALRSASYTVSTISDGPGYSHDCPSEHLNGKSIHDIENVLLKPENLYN
Sequence of CGRP receptors (O60894 27-148 partner): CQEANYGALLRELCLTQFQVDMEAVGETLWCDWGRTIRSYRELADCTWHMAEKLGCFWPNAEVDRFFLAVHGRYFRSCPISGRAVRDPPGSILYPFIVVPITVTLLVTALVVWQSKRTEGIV

[1] = humans; cited from earlier work
VIPR2 (VPAC2) = target: T1, VIPR2 (VPAC2) (Homo sapiens, UniProt P41587); assay: cAMP Hunter cell line functional assay, agonist mode (DiscoveRx HitHunter cAMP XS+); format: cell-based; settings: FIG. 3
T1 construct: host or cells: cAMP Hunter cell line (CHO-K1 is named only in the prophetic b955)
T1 sequence (P41587 24-438): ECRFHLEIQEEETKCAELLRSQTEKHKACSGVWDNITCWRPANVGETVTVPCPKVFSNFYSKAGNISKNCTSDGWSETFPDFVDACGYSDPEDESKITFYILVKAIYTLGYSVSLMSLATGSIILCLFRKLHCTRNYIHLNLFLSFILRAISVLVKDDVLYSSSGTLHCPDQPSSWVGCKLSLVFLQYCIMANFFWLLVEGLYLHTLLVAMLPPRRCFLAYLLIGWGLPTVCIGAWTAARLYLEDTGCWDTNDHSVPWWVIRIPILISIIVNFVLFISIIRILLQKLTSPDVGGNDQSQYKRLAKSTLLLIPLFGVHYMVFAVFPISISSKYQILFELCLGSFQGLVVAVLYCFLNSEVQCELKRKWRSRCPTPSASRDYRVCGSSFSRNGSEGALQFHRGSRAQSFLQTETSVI
Procedure: (§1) Once it was established that the cells were healthy and growing normally, cells were passaged from flasks using cell dissociation reagent buffer and seeded into white walled clear bottom 384-well microplates for compound profiling. For profiling, cells were seeded at a density of 10,000 cells per well in a total volume of 20 μL and were allowed to adhere and recover overnight prior to compound addition. cAMP modulation was determined using the DiscoveRx HitHunter cAMP XS+ assay.
(§2) For profiling compound in agonist mode, the cells were incubated in the presence of compound at 37° C. for 30 minutes. […] After appropriate compound incubation, assay signal was generated through incubation with DiscoverX lysis cocktail according to the manufacturers standard protocol. Dose curves were plotted using GraphPad Prism or Activity Base. Percentage activity is calculated using the following formula:
(§3) % Activity=100%×(mean RLU of test sample−mean RLU of vehicle control)/(mean RLU of MAX control−mean RLU of vehicle control).

VIPR1 (VPAC1) = target: T2, VIPR1 (VPAC1) (Homo sapiens, UniProt P32241); assay: as above; format: cell-based; settings: for Mean RLU: cAMP, VIPR1 cells
T2 sequence (P32241 31-457): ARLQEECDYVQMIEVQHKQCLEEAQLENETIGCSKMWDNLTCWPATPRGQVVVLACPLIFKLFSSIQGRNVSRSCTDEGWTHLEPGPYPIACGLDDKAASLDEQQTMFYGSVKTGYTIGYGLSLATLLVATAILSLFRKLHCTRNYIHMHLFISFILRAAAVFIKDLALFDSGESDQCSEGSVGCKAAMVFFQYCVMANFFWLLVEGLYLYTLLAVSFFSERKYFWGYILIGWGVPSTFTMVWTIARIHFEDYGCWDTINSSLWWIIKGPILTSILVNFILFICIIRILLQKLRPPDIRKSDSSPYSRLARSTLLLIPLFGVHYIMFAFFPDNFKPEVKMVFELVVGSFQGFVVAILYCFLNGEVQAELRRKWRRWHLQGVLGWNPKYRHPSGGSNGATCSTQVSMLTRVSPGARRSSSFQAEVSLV
Procedure: as §1, §2, §3

neurotensin receptors = settings: rat brain receptors; read-out: IC50, inhibition of {Trp11}-NT binding; cited from earlier work

AC 187
selectivity over calcitonin receptors (calcitonin receptors): 38 fold
pIC50 (amylin receptor): 9.32
selectivity over CGRP receptors (CGRP receptors): 400 fold

GLP-1: glucagon-like peptide-1, a product of the proglucagon gene, gut hormone (HDEFERHAEGTFTSDVSSYLEGQAAQGFIAWLVKGRG)
plasma half-life [1]: 2 min

HSDAVFTDNYXRLZKQLXVKZYLNX ILN [Compound 8]
activation of / interaction with VIPR2 (in words) (VIPR2 (VPAC2)): not activate; also recorded: does not interact substantially
Mean RLU (VIPR1 (VPAC1); 1.03E−08 M): 13700.0 RLU
Mean RLU (VIPR1 (VPAC1); 1.03E−09 M): 13500.0 RLU
Mean RLU (VIPR1 (VPAC1); 1.03E−10 M): 9960.0 RLU
Mean RLU (VIPR1 (VPAC1); 1.03E−11 M): 10500.0 RLU
Mean RLU (VIPR1 (VPAC1); 1.03E−12 M): 10340.0 RLU
Mean RLU (VIPR1 (VPAC1); 5.03E−07 M): 112320.0 RLU
Mean RLU (VIPR1 (VPAC1); 5.03E−08 M): 96460.0 RLU
Mean RLU (VIPR1 (VPAC1); 5.03E−09 M): 13200.0 RLU
Mean RLU (VIPR1 (VPAC1); 5.03E−10 M): 9520.0 RLU
activation of VIPR1 (in words) (VIPR1 (VPAC1); FIG. 3): fully activate
pEC50 (VIPR1 (VPAC1); cAMP readout, 37° C. for 30 minutes, read-out: EC50 (peptide concentration for 50% VIPR1 activation)): 7.55

Neuromedin N
pIC50 (neurotensin receptors): 7.78
